Assay results as given in patent US8530490B2, “Uracil compound or salt thereof having human deoxyuridine triphosphatase inhibitory activity” (Taiho Pharmaceutical Co., Ltd., priority 2008, dated 2013).

Target: human dUTPase (Homo sapiens (Human), UniProt P33316)
Assay: Human dUTPase inhibitory effect: production of [5-3H]dUMP from [5-3H]dUTP, measured by HPLC with flow scintillation
Assay type: biochemical
Conditions: [5-3H]dUMP production from [5-3H]dUTP, 37° C., 15 minutes
Procedure: The inhibitory activity of the compound of the present invention against human dUTPase was determined by measuring the production of [5-^3H]deoxyuridine monophosphate (hereinafter, referred to as [5-^3H]dUMP) from [5-^3H]deoxyuridine triphosphate (hereinafter, referred to as [5-^3H]dUTP) according to a method shown below.
Specifically, 0.2 mL in total of a solution containing 0.02 mL of 1 μM dUTP (including 588 Bq/mL [5-3H]dUTP), 0.05 mL of a 0.2 M Tris buffer solution (pH 7.4), 0.05 mL of 16 mM magnesium chloride, 0.02 mL of 20 mM 2-mercaptoethanol, 0.02 mL of a 1% aqueous solution of fetal bovine serum-derived albumin, 0.02 mL of varying concentrations of test compound solutions or pure water as a control, and 0.02 mL of a solution of human dUTPase (expressed using E. coli and purified) was reacted at 37° C. for 15 minutes. Immediately after the reaction, the solution was heated at 100° C. for 1 minute to terminate the reaction, followed by centrifugation at 15000 rpm for 2 minutes. An aliquot (150 μL) of the supernatant thus obtained by centrifugation was analyzed using an Atlantis dC18 column (manufactured by Waters Corp., 4.6×250 mm) and a high-performance liquid chromatograph (manufactured by Shimadzu Corp., Prominence). Elution was performed at a flow rate of 0.8 mL/min for 30 minutes by a concentration gradient from a 4:6 mixed solution of a mobile phase A (10 mM potassium dihydrogen phosphate (pH 6.7), 10 mM tetrabutylammonium, and 0.25% methanol) and a mobile phase B (50 mM potassium dihydrogen phosphate (pH 6.7), 5.6 mM tetrabutylammonium, and 30% methanol) to the mobile phase B. The eluate was mixed with a scintillator (manufactured by PerkinElmer Co., Ltd., Ultima-Flo AP) at a 1:2 ratio, and the radioactivity of the produced [5-^3H]dUMP (RT 10.2 min) was measured using Radiomatic Flow Scintillation Analyzer (manufactured by PerkinElmer Co., Ltd., 525TR).
The inhibitory activity of the test compound was determined according to the formula shown below.

human dUTPase, sequence (P33316 94-252): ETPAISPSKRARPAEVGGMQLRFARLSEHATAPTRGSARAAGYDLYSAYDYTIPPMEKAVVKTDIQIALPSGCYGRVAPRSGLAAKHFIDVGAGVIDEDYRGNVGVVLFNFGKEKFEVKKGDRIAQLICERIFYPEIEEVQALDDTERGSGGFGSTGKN

| IC50 [nM] | SMILES |
| --- | --- |
| 410 | C[C@@H](NS(=O)(=O)CCCOCn1ccc(=O)[nH]c1=O)c1cccc(OC(F)(F)C(F)(F)F)c1 [Example 55, (R)-3-((2,4-dioxo-3,4-dihydropyrimidin-1(2H)-yl)methoxy)-N-(1-(3-(perfluoroethoxy)phenyl)ethyl)propane-1-sulfonamide] |
| 850 | C[C@@H](NS(=O)(=O)CCCOCn1ccc(=O)[nH]c1=O)c1cccc(OC(CF)CF)c1 [Example 56, (R)—N-(1-(3-(1,3-difluoropropan-2-yloxy)phenyl)ethyl)-3-((2,4-dioxo-3,4-dihydropyrimidin-1(2H)-yl)methoxy)propane-1-sulfonamide] |
| 1180 | C#CCOc1cccc([C@@H](C)NS(=O)(=O)CCCOCn2ccc(=O)[nH]c2=O)c1 [Example 57, (R)-3-((2,4-dioxo-3,4-dihydropyrimidin-1(2H)-yl)methoxy)-N-(1-(3-(prop-2-ynyloxy)phenyl)ethyl)propane-1-sulfonamide] |
| 490 | C[C@@H](NS(=O)(=O)CCCOCn1ccc(=O)[nH]c1=O)c1cccc(OCC2(C)CC2)c1 [Example 60, (R)-3-((2,4-dioxo-3,4-dihydropyrimidin-1(2H)-yl)methoxy)-N-(1-(3-((1-methylcyclopropyl)methoxy)phenyl)ethyl)propane-1-sulfonamide] |
| 140 | C[C@@H](NS(=O)(=O)CCCOCn1ccc(=O)[nH]c1=O)c1cccc(OCC(F)F)c1 [Example 61, (R)—N-(1-(3-(2,2-difluoroethoxy)phenyl)ethyl)-3-((2,4-dioxo-3,4-dihydropyrimidin-1(2H)-yl)methoxy)propane-1-sulfonamide] |
| 370 | C#C[C@H](C)Oc1cccc([C@@H](C)NS(=O)(=O)CCCOCn2ccc(=O)[nH]c2=O)c1 [Example 62, N—((R)-1-(3-((S)-but-3-yn-2-yloxy)phenyl)ethyl)-3-((2,4-dioxo-3,4-dihydropyrimidin-1(2H)-yl)methoxy)propane-1-sulfonamide] |
| 470 | C#C[C@@H](C)Oc1cccc([C@@H](C)NS(=O)(=O)CCCOCn2ccc(=O)[nH]c2=O)c1 [Example 63, N—((R)-1-(3-((R)-but-3-yn-2-yloxy)phenyl)ethyl)-3-((2,4-dioxo-3,4-dihydropyrimidin-1(2H)-yl)methoxy)propane-1-sulfonamide] |
| 1000 | C[C@@H](NS(=O)(=O)CCCOCn1ccc(=O)[nH]c1=O)c1cccc(OCC2CCCC2)c1 [Example 65, (R)—N-(1-(3-(cyclopentylmethoxy)phenyl)ethyl)-3-((2,4-dioxo-3,4-dihydropyrimidin-1(2H)-yl)methoxy)propane-1-sulfonamide] |
| 460 | CC[C@@H](C)Oc1cccc([C@@H](C)NS(=O)(=O)CCCOCn2ccc(=O)[nH]c2=O)c1 [Example 66, N—((R)-1-(3-((R)-1-methylpropoxy)phenyl)ethyl)-3-((2,4-dioxo-3,4-dihydropyrimidin-1(2H)-yl)methoxy)propane-1-sulfonamide] |
| 430 | CC[C@H](C)Oc1cccc([C@@H](C)NS(=O)(=O)CCCOCn2ccc(=O)[nH]c2=O)c1 [Example 67, N—((R)-1-(3-((s)-1-methylpropoxy)phenyl)ethyl)-3-((2,4-dioxo-3,4-dihydropyrimidin-1(2H)-yl)methoxy)propane-1-sulfonamide] |
| 110 | C[C@@H](NS(=O)(=O)CCCOCn1ccc(=O)[nH]c1=O)c1ccc(F)c(OCC(F)F)c1 [Example 68, (R)—N-(1-(3-(2,2-difluoroethoxy)-4-fluorophenyl)ethyl)-3-((2,4-dioxo-3,4-dihydropyrimidin-1(2H)-yl)methoxy)propane-1-sulfonamide] |
| 740 | C=CCOc1cccc([C@@H](C)NS(=O)(=O)CCCOCn2ccc(=O)[nH]c2=O)c1 [Example 69, (R)—N-(1-(3-(allyloxy)phenyl)ethyl)-3-((2,4-dioxo-3,4-dihydropyrimidin-1(2H)-yl)methoxy)propane-1-sulfonamide] |
| 760 | CCC[C@H](C)Oc1cccc([C@@H](C)NS(=O)(=O)CCCOCn2ccc(=O)[nH]c2=O)c1 [Example 70, 3-((2,4-dioxo-3,4-dihydropyrimidin-1(2H)-yl)methoxy)-N—((R)-1-(3-((S)-pentan-2-yloxy)phenyl)ethyl)propane-1-sulfonamide] |
| 930 | CCC[C@@H](C)Oc1cccc([C@@H](C)NS(=O)(=O)CCCOCn2ccc(=O)[nH]c2=O)c1 [Example 71, 3-((2,4-dioxo-3,4-dihydropyrimidin-1(2H)-yl)methoxy)-N—((R)-1-(3-((R)-pentan-2-yloxy)phenyl)ethyl)propane-1-sulfonamide] |
| 660 | C[C@@H](NS(=O)(=O)CCCOCn1ccc(=O)[nH]c1=O)c1cccc(OCC(F)(F)C(F)(F)F)c1 [Example 72, (R)-3-((2,4-dioxo-3,4-dihydropyrimidin-1(2H)-yl)methoxy)-N-(1-(3-(2,2,3,3,3-pentafluoropropoxy)phenyl)ethyl)propane-1-sulfonamide] |
| 510 | C[C@@H](NS(=O)(=O)CCCOCn1ccc(=O)[nH]c1=O)c1cccc(OCCC2CC2)c1 [Example 73, (R)—N-(1-(3-(2-cyclopropylethoxy)phenyl)ethyl)-3-((2,4-dioxo-3,4-dihydropyrimidin-1(2H)-yl)methoxy)propane-1-sulfonamide] |
| 2100 | O=c1ccn(COCCCS(=O)(=O)NC(c2ccccc2)c2ccccc2)c(=O)[nH]1 [Example 76, N-benzhydryl-3-((2,4-dioxo-3,4-dihydropyrimidin-1(2H)-yl)methoxy)propane-1-sulfonamide] |
| 5690 | Cc1ccccc1C(NS(=O)(=O)CCCOCn1ccc(=O)[nH]c1=O)c1ccccc1 (stereo not shown) [Example 77, 3-((2,4-dioxo-3,4-dihydropyrimidin-1(2H)-yl)methoxy)-N-(phenyl(o-tolyl)methyl)propane-1-sulfonamide] |
| 2580 | O=c1ccn(COCCCS(=O)(=O)NC(c2ccc(F)cc2)c2ccc(F)cc2)c(=O)[nH]1 [Example 78, N-(bis(4-fluorophenyl)methyl)-3-((2,4-dioxo-3,4-dihydropyrimidin-1(2H)-yl)methoxy)propane-1-sulfonamide] |
| 1650 | O=c1ccn(COCCCS(=O)(=O)N2CCC[C@@H]2C(c2ccccc2)c2ccccc2)c(=O)[nH]1 [Example 79, (R)-1-((3-(2-benzhydrylpyrrolidin-1-ylsulfonyl)propoxy)methyl)pyrimidine-2,4(1H, 3H)-dione] |
| 1300 | CC(C)C[C@@H](NS(=O)(=O)CCCOCn1ccc(=O)[nH]c1=O)C(O)(c1ccccc1)c1ccccc1 [Example 80, (R)-3-((2,4-dioxo-3,4-dihydropyrimidin-1(2H)-yl)methoxy)-N-(1-hydroxy-4-methyl-1,1-diphenylpentan-2-yl)propane-1-sulfonamide] |
| 9440 | O=c1ccn(COCCCS(=O)(=O)NC2(c3ccccc3)CCCC2)c(=O)[nH]1 [Example 81, 3-((2,4-dioxo-3,4-dihydropyrimidin-1(2H)-yl)methoxy)-N-(1-phenylcyclopentyl)propane-1-sulfonamide] |
| 4780 | CC[C@@H](NS(=O)(=O)CCCOCn1ccc(=O)[nH]c1=O)c1ccccc1 [Example 83, (R)-3-((2,4-dioxo-3,4-dihydropyrimidin-1(2H)-yl)methoxy)-N-(1-phenylpropyl)propane-1-sulfonamide] |
| 7130 | C[C@@H](NS(=O)(=O)CCCOCn1ccc(=O)[nH]c1=O)c1cccc(F)c1 [Example 87, (R)-3-((2,4-dioxo-3,4-dihydropyrimidin-1(2H)-yl)methoxy)-N-(1-(3-fluorophenyl)ethyl)propane-1-sulfonamide] |
| 4630 | O=c1ccn(COCCCS(=O)(=O)NC(c2ccccc2)c2cccc(F)c2)c(=O)[nH]1 (stereo not shown) [Example 93, 3-((2,4-dioxo-3,4-dihydropyrimidin-1(2H)-yl)methoxy)-N-((3-fluorophenyl)(phenyl)methyl)propane-1-sulfonamide] |
| 4620 | O=c1ccn(Cc2ccc(S(=O)(=O)NC(c3ccccc3)c3ccccc3)cc2)c(=O)[nH]1 [Example 96, N-benzhydryl-4-((2,4-dioxo-3,4-dihydropyrimidin-1(2H)-yl)methyl)benzenesulfonamide] |

| SMILES | IC50 [nM] |
| --- | --- |
| CC(C)COc1cccc([C@@H](C)NS(=O)(=O)CCCOCn2ccc(=O)[nH]c2=O)c1 [Example 58, (R)-3-((2,4-dioxo-3,4-dihydropyrimidin-1(2H)-yl)methoxy)-N-(1-(3-isobutoxyphenyl)ethyl)propane-1-sulfonamide] | 310 |
| CC[C@H](C)COc1cccc([C@@H](C)NS(=O)(=O)CCCOCn2ccc(=O)[nH]c2=O)c1 [Example 59, 3-((2,4-dioxo-3,4-dihydropyrimidin-1(2H)-yl)methoxy)-N—((R)-1-(3-((S)-2-methylbutoxy)phenyl)ethyl)propane-1-sulfonamide] | 720 |
